Measurements published in patent US10456388B2, “Antihistamine for use in treatment of breast cancer” (BELINA PHARMA AB, priority 2015, dated 2019).
Read-outs that look alike come from different tables or passages of the source.

Columns and labels:
breast cancer cases = test: Replication study, extended breast cancer material Swedish Cancer Registry 2000-2013 (n=103 500 cases), late entry models; assay type: in vivo, human; conditions: for Breast cancer survival HR / Overall survival HR: use after diagnosis, adjusted for age, tumour stage, late entry models; for BC survival HR: extended study, real patient data; for Survival of users compared with non-users, in words: replication study, Table 10; for Breast cancer survival HR by desloratadine use: late entry model
Description: Using an extended breast cancer material of all cases from the Swedish Cancer Registry 2000-2013 (n=103 500 cases) linking the data with the Drug Prescription Registry a replication study was carried out. The data from this extended study can be found in Tables 10 and 11. With the larger set of data, the effect for each individual antihistamine becomes more pronounced.
Using an extended breast cancer material of all cases from the Swedish Cancer Registry 2000-2013 (n=103 500 cases) linking the data with the Drug Prescription Registry a replication study was carried out. The data from this extended study are represented in tables 10 and 11.
Using an extended breast cancer material of all cases from the Swedish Cancer Registry 2000-2013 (n=103 500 cases) linking the data with the Drug Prescription Registry, a replication study was carried out, as shown in table 10.

women with invasive BC [1] = conditions: for Hazard ratio Exp(B), ER Negative Breast Cancer / Hazard ratio Exp(B), ER Positive Breast Cancer / BC specific survival compared to controls (Kaplan-Meier, univariate): late entry model; for Hazard ratio Exp(B), ER Negative Breast Cancer / Hazard ratio Exp(B), ER Positive Breast Cancer / Hazard ratio Exp(B), Cox proportional hazard - late entry model: adjusted for age at BC diagnosis and TN-stage; for HR (CI), late entry model: adjusted for age at BC diagnosis and TN; for Hazard ratio Exp(B), Cox proportional hazard - late entry model: ever-use vs controls, cases before 1st of Jul. 2005 and unknown N-status censored, Table 5; for Dead in BC (Yes): groups by main antihistamine used, patients from 1st of Jul. 2005-31st of Dec. 2008; for BC specific survival compared to controls (Kaplan-Meier, univariate): FIGS. 4 and 5
women with invasive BC [2] = conditions: for BC specific survival compared to controls (Kaplan-Meier, univariate): ever-use model, FIGS. 1 to 3; for Dead in BC (Yes): groups by main antihistamine used, all patients from 2000-2008
[3] = multi dose studies with 100 mg per day; cited from earlier work
[4] = Survival 2009-2014 (title: 2009-2013)

SMILES	Breast cancer survival HR (breast cancer cases; Survival 2005-2008)	Overall survival HR (breast cancer cases; Survival 2005-2008)	Breast cancer survival HR (breast cancer cases; [4])	Overall survival HR (breast cancer cases; [4])	BC survival HR (breast cancer cases)	Survival of users compared with non-users, in words (breast cancer cases)	Hazard ratio Exp(B), ER Negative Breast Cancer (women with invasive BC [1])	Hazard ratio Exp(B), ER Positive Breast Cancer (women with invasive BC [1])	HR (CI), late entry model (women with invasive BC [1])	Hazard ratio Exp(B), Cox proportional hazard - late entry model (women with invasive BC [1])	Dead in BC (Yes) (women with invasive BC [1])	BC specific survival compared to controls (Kaplan-Meier, univariate) (women with invasive BC [1])	BC specific survival compared to controls (Kaplan-Meier, univariate) (women with invasive BC [2])	Dead in BC (Yes) (women with invasive BC [2])	Clinical side effects [3]	Breast cancer survival HR by desloratadine use (breast cancer cases; <400 days use vs never)	Survival HR, users compared with non users (breast cancer cases; years before 2009)	Breast cancer survival HR by desloratadine use (breast cancer cases; ≥400 days use vs never)	Effect on breast cancer survival rate by treatment period (FIG. 7) (women with invasive BC [1]; use only after the BC diagnosis)	Effect on breast cancer survival rate by treatment period (FIG. 7) (women with invasive BC [1]; use only before the BC diagnosis)
O=C(O)COCCN1CCN(C(c2ccccc2)c2ccc(Cl)cc2)CC1 (centres unmarked) [Cetirizine, cetirizine]	1.08	1.41	1.21	1.09	1.28	negatively affects survival	1.491	2.166	1.13 (0.96-1.33)	1.194	16.5%	non-statistically significant longer BC specific survival	initially had a higher survival percentage compared to controls, but with time it became lower compared to controls	18.0%						
CC(C)(C)c1ccc(C(=O)CCCN2CCC(OC(c3ccccc3)c3ccccc3)CC2)cc1 [Ebastin, ebastin]	0.25	0.48	0.75	0.91		better overall and BC specific survival			0.50 (0.22-1.12)		5.7%	statistically significant longer BC specific survival	clear, statistically significant, longer BC specific survival	6.7%	did not show any further clinical side effects					
CC(C)(C(=O)O)c1ccc(C(O)CCCN2CCC(C(O)(c3ccccc3)c3ccccc3)CC2)cc1 (centres unmarked) [Fexofenadine, fexofenadine]	1.20	1.40	0.85	0.65			.316	.826	0.73 (0.30-1.76)	.802	11.6%	non-statistically significant longer BC specific survival	clear, statistically significant, longer BC specific survival	9.0%						
CN1CCC[C@@H]1CCO[C@](C)(c1ccccc1)c1ccc(Cl)cc1 [Klemastine, klemastine]	1.43	2.07	0.94	1.08	1.12	negatively affects survival			0.98 (0.80-1.19)		14.3%	non-statistically significant longer BC specific survival	clear, statistically significant, longer BC specific survival	13.8%						
Clc1ccc2c(c1)CCc1cccnc1C2=C1CCNCC1 [Desloratadine, desloratadine]	0.47	0.47	0.74	0.71		better overall and BC specific survival					8.1%	statistically significant longer BC specific survival	clear, statistically significant, longer BC specific survival	7.1%		0.94	0.63	0.62	clear positive effects can be shown	no positive effects on breast cancer survival rate can be established
CCOC(=O)N1CCC(=C2c3ccc(Cl)cc3CCc3cccnc32)CC1 [Loratadine, loratadine]	0.77	1.05	0.93	0.86			.945	1.087	0.74 (0.60-0.93)	.816	10.4%	statistically significant longer BC specific survival	clear, statistically significant, longer BC specific survival	11.7%						
